Consider two compounds from publication PMC8213057, “Targeting ALK2: An Open Science Approach to Developing Therapeutics for the Treatment of Diffuse Intrinsic Pontine Glioma” (Journal of Medicinal Chemistry, 2020).

Experiment [1] deals with CDK5/P25 (Homo sapiens, UniProt Q00535). Description: biochemical. Particulars: read-out: % enzyme activity, 1 μM; Run 1, Run 2.
The target of experiment [2] is EPHA5 (Homo sapiens, UniProt P54756). The note with it: 1 μM; Run 1, Run 2.
The target of experiment [3] is PKA (Homo sapiens, UniProt P17612). Particulars: 1 μM; Run 1, Run 2.
Experiment [4] has as its target T1, YSK4/MAP3K19 (Homo sapiens, UniProt Q56UN5).
T1 sequence (Q56UN5 1-1328): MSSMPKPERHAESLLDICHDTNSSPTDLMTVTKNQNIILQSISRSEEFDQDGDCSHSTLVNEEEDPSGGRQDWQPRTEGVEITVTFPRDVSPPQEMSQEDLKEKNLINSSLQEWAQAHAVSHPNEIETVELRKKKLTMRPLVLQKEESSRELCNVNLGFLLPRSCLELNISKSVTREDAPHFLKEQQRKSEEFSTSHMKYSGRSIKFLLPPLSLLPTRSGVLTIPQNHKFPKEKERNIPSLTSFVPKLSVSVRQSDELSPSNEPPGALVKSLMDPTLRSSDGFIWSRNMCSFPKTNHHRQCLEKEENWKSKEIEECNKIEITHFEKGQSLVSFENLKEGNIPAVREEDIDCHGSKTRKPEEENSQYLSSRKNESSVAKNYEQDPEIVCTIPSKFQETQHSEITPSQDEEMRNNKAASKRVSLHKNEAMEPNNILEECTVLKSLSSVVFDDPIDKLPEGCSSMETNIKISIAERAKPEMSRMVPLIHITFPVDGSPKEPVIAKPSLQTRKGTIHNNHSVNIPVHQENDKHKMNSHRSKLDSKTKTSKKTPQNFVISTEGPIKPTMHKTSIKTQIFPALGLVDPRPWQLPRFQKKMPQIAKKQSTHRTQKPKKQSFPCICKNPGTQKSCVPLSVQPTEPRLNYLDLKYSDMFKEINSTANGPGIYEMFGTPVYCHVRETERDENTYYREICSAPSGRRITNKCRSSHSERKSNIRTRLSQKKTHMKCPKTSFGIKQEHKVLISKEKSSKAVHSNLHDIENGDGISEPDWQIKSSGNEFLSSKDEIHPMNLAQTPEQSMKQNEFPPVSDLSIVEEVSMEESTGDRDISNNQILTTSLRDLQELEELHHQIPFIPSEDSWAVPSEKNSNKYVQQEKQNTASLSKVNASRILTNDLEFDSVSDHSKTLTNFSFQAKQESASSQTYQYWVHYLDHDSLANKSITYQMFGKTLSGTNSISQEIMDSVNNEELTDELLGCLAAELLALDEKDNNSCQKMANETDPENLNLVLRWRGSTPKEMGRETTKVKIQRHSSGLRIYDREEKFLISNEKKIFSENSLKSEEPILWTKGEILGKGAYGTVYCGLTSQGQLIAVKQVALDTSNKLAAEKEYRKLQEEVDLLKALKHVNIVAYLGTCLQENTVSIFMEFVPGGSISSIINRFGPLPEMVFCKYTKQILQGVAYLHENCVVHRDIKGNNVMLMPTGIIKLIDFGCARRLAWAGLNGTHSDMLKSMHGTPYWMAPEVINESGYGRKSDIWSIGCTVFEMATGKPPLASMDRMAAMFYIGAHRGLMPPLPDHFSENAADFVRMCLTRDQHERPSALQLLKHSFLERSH
The experiment is described as follows: biochemical. The note with it: read-out: % enzyme activity, 1 μM; Run 1, Run 2.

Experiment [5] addresses OSR1/OXSR1 (Homo sapiens, UniProt O95747). The experiment is described as follows: biochemical. Particulars: read-out: % enzyme activity, 1 μM; Run 1, Run 2.
Experiment [6] concerns the target CK1a1 (Homo sapiens, UniProt P48729). Description: biochemical. The note with it: read-out: % enzyme activity, 1 μM; Run 1, Run 2.
In experiment [7] the target is PLK1 (Homo sapiens, UniProt P53350). Description: biochemical. Particulars: read-out: % enzyme activity, 1 μM; Run 1, Run 2.
Experiment [8] concerns the target T2, ERK7/MAPK15 (Homo sapiens, UniProt Q8TD08).
T2 sequence (Q8TD08 1-544): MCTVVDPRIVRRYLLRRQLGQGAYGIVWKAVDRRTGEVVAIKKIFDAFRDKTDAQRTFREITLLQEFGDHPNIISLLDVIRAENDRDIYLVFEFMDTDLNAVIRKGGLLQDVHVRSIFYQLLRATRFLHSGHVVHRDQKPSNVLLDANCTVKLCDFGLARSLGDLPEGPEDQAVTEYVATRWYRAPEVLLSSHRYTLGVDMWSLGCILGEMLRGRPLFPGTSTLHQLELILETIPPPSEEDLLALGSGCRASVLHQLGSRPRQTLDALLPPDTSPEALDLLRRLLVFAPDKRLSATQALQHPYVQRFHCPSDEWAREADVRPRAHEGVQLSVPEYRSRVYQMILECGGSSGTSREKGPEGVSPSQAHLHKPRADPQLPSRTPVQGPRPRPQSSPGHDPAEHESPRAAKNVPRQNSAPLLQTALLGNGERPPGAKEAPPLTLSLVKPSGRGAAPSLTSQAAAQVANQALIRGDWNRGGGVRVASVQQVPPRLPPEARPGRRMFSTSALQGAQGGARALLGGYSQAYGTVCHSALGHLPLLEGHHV
Particulars: 1 μM; Run 1, Run 2.

CK1a1, sequence (P48729 whole entry): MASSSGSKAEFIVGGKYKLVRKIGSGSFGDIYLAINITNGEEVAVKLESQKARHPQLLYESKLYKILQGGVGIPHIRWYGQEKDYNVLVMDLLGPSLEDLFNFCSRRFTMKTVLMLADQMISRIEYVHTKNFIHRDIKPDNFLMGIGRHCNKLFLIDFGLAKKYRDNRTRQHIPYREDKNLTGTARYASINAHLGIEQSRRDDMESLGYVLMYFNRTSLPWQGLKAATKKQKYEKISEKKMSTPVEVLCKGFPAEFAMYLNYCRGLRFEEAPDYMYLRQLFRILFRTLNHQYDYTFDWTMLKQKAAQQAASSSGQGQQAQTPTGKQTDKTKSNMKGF
EPHA5, sequence (P54756 25-1037): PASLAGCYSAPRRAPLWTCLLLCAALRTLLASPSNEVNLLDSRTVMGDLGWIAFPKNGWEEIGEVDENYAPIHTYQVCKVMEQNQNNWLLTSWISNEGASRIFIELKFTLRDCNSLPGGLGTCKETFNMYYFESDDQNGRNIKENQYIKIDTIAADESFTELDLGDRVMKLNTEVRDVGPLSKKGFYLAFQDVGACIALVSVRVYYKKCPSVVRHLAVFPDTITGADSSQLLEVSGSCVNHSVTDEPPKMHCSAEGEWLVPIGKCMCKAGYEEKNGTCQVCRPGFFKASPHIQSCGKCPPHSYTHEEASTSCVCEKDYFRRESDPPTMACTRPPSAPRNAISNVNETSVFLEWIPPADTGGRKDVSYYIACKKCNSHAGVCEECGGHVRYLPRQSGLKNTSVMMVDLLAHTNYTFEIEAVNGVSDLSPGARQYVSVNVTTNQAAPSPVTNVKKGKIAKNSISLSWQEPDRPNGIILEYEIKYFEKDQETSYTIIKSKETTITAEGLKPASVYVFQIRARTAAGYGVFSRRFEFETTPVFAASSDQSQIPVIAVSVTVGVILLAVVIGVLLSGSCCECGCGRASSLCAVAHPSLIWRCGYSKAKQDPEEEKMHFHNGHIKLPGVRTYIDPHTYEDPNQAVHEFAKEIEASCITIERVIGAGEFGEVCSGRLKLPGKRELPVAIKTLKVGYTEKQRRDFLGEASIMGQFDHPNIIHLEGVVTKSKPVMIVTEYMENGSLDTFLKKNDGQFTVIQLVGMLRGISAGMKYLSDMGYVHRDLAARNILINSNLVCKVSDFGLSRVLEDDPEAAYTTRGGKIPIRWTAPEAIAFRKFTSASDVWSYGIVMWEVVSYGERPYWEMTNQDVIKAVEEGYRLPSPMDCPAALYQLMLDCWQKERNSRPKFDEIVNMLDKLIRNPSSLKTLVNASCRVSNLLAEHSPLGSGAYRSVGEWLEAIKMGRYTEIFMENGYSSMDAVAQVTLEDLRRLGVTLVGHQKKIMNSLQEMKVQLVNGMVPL
PLK1, sequence (P53350 whole entry): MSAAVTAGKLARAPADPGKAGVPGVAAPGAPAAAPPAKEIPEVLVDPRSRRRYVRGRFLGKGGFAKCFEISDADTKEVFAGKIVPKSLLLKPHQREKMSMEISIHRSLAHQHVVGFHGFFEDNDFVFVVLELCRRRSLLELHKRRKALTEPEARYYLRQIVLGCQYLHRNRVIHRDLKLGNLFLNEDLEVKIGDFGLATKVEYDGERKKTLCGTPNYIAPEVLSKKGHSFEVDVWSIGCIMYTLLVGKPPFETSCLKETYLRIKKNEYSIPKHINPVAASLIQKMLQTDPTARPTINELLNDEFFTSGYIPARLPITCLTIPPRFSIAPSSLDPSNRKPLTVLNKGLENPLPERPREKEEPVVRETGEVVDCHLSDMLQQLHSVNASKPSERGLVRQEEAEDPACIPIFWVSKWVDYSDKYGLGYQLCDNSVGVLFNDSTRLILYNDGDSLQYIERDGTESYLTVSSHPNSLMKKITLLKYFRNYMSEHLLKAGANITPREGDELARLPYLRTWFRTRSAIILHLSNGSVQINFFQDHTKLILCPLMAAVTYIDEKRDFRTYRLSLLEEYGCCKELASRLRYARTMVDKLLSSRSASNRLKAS
CDK5/P25, sequence (Q00535 whole entry): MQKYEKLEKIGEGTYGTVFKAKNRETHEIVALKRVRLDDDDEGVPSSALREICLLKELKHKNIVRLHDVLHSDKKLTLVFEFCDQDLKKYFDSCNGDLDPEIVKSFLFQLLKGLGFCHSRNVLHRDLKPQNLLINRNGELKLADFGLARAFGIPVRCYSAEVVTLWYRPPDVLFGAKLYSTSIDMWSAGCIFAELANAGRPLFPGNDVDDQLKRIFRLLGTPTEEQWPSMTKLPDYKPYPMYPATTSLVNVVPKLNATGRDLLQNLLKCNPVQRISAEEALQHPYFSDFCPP
CDK5/P25, sequence (Q15078 99-307 partner limits assumed): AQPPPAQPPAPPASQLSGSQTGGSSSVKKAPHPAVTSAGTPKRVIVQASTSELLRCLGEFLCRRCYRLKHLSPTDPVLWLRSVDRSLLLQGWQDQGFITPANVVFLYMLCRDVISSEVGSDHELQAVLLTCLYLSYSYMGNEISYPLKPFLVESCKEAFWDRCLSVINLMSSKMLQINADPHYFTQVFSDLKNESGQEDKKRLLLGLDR
OSR1/OXSR1, sequence (O95747 whole entry): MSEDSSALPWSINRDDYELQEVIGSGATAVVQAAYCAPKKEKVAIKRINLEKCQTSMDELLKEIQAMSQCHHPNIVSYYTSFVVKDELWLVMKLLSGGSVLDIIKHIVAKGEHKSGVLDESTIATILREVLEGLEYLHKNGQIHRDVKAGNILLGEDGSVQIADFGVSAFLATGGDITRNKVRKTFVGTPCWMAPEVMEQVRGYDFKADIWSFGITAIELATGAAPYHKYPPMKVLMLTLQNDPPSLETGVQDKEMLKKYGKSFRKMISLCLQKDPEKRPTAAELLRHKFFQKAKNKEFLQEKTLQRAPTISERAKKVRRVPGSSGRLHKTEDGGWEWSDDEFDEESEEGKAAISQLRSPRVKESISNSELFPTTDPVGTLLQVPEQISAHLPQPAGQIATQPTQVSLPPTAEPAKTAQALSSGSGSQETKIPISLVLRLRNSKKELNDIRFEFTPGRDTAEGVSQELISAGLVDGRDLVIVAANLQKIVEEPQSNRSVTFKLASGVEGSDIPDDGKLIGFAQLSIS

Turning to `COc1cc(-c2cncc(-c3ccc(N4C[C@@H](C)N(C)[C@@H](C)C4)cc3)c2C)cc(F)c1C(N)=O` [Compound 26c, 2-Fluoro-6-methoxy-4-(4-methyl-5-(4-((3R,5S)-3,4,5-trimethylpiperazin-1-yl)phenyl)pyridin-3-yl)benzamide], the remaining activity at 1 µM in experiment [1] was 94.8%; in experiment [4], 97%; in experiment [5], 95%; in experiment [6] it was 100%; in experiment [7] it was 92.7%. Moreover, the “% enzyme activity” value is listed as 90.66% in experiment [2], 95.62% in experiment [3] and 96.45% in experiment [8].
Take `COc1cc(-c2cncc(-c3ccc(N4CCN(C)CC4)cc3)c2C)cc(F)c1C(N)=O` [Compound 26a, 2-Fluoro-6-methoxy-4-(4-methyl-5-(4-(4-methylpiperazin-1-yl)phenyl)pyridin-3-yl)benzamide]: the remaining activity at 1 µM is 94.6% in experiment [1]; 98.2% in experiment [4]; 93.4% in experiment [5]; 96.1% in experiment [6]; 92.4% in experiment [7]. Moreover, the “% enzyme activity” value was determined as 90.37% in experiment [2], 96.94% in experiment [3] and 85.69% in experiment [8].
